Source: US20180310561A1 (priority 2015, published 2018)

Tests used:
[1] = tested on: Fusarium culmorum; assay: Green house: control of culm rot on pearl millet caused by Fusarium culmorum; format: in vivo; conditions: 63 ppm spray on pearl millet seedlings; inoculated 7 days later; % diseased leaf area assessed after 6 days; untreated control 90
Procedure: The spray solutions were prepared in several steps:
The stock solution were prepared: a mixture of acetone and/or dimethylsulfoxide and the wetting agent/emulsifier Wettol, which is based on ethoxylated alkylphenoles, in a relation (volume) solvent-emulsifier of 99 to 1 was added to 25 mg of the compound to give a total of 5 ml. Water was then added to total volume of 100 ml.
This stock solution was diluted with the described solvent-emulsifier-water mixture to the given concentration.
Pot-grown pearl millet seedlings were sprayed to run-off with an aqueous suspension, containing the concentration of active ingredient or their mixture as described below.The plants were allowed to air-dry. Seven days later the plants were inoculated with an spore suspension of Fusarium culmorum in a aqueous biomalt solution. Then the trial plants were immediately transferred to a humid chamber. After 6 days at 23-25° C. and a relative humidity close to 100% the extent of fungal attack on the leaves was visually assessed as % diseased leaf area.

[2] = tested on: Botrytis cinerea; assay: Activity against the grey mold Botrytis cinerea in the microtiterplate test; format: cell-based; conditions: relative growth vs active compound-free control (100%), MTP measured at 405 nm 7 days after inoculation
[3] = tested on: Septoria tritici; assay: Activity against leaf blotch on wheat caused by Septoria tritici (microtiter plate); format: cell-based; conditions: relative growth vs active compound-free control (100%), MTP measured at 405 nm 7 days after inoculation
[4] = tested on: Alternaria solani; assay: Activity against early blight caused by Alternaria solani (microtiter plate); format: cell-based; conditions: relative growth vs active compound-free control (100%), MTP measured at 405 nm 7 days after inoculation
[5] = tested on: Pyricularia oryzae; format: cell-based; conditions: relative growth vs active compound-free control (100%), MTP measured at 405 nm 7 days after inoculation
[6] = tested on: Leptosphaeria nodorum; assay: Activity against wheat leaf spots caused by Leptosphaeria nodorum (microtiter plate); format: cell-based; conditions: relative growth vs active compound-free control (100%), MTP measured at 405 nm 7 days after inoculation

With Cc1cc(C2=NC(C)(C)Cc3c(F)cccc32)cnc1C [drawing 1382] the “Disease (%) at 63 ppm” value [1] was 88%.

In the case of Cc1cc(C2=NC(C)(C)Cc3c(Br)cccc32)cnc1C [I-1, 5-Bromo-1-(5,6-dimethyl-3-pyridyl)-3,3-dimethyl-4H-isoquinoline], the “Growth (%) at 32 ppm Botottis cinerea” value [2] is reported as 0%, the “Disease (%) at 63 ppm” value [1] is reported as 53% and the “Growth (%) at 32 ppm Septona triad” value [3] is reported as 0%.

In the case of Cc1ccc(C2=CC(C)(C)Cc3ccccc32)cc1C, the “Growth (%) at 32 ppm Botottis cinerea” value [2] is reported as 84% and the “Growth (%) at 32 ppm Septona triad” value [3] is reported as 93%.

In the case of Cc1cc(C2=NC(C)(C)Cc3ccccc32)cnc1C, the “Growth (%) at 31 ppm Alternaria solanioryzae” value [4] is reported as 47%, the “Growth (%) at 31 ppm Pyricularia” value [5] is reported as 23% and the “Growth (%) at 31 ppm Leptosphaeria nodorum” value [6] is reported as 72%.

For Cc1cc(C2=NC(C)(C)Cc3c(F)cccc32)cnc1C [drawing 1380], the “Growth (%) at 31 ppm Leptosphaeria nodorum” value [6] was 39%.
